Series [1] in a line: Effect of arylcarboxylic acid on solubility of pyridonecarboxylic acid - 2 (Table 2). As to conditions: 0.1% aqueous sodium dihydrogenphosphate, 25° C., one week. Type of series: physicochemical. The procedure:
Experimental Example 2: Effect of arylcarboxylic acid on solubility of pyridonecarboxylic acid - 2
(§1) To a 0.1% aqueous sodium dihydrogenphosphate solution (100 ml) containing 2-naphthoic acid, 2-naphthylacetic acid or 2-naphthoxyacetic acid was added norfloxacin or enoxacin in excess, and the pH thereof was adjusted to 8-9 with hydrochloric acid or sodium hydroxide. The mixture was shaken for one week at 25° C. and filtered through a 0.45 μm membrane filter, which was followed by the determination of a norfloxacin or enoxacin content by high performance liquid chromatography.

The nature of series [2]: Effect of arylcarboxylic acid on solubility of pyridonecarboxylic acid - 1 (Table 1). It is filed as physicochemical. To be noted: 0.1% aqueous sodium dihydrogenphosphate, 25° C., one week. The procedure: Experimental Example 1: Effect of arylcarboxylic acid on solubility of pyridonecarboxylic acid - 1
(§2) To a 0.1% aqueous sodium dihydrogenphosphate solution (100 ml) containing pranoprofen, ibuprofen or bromfenac was added norfloxacin or enoxacin in excess, and the pH thereof was adjusted to 7-8 with hydrochloric acid or sodium hydroxide. The mixture was shaken for one week at 25° C. and filtered through a 0.45 μm membrane filter, which was followed by the determination of a norfloxacin or enoxacin content by high performance liquid chromatography.

The nature of series [3]: Increase of solubility by addition of arylcarboxylic acid (Tables 1 to 3). It is filed as physicochemical. As to conditions: about, addition of at least one arylcarboxylic acid (pranoprofen, ibuprofen, diclofenac, bromfenac, 2-naphthoic, 2-naphthylacetic, 2-naphthoxyacetic acid). The procedure:
as §2, §1
(§3) To a 0.1% aqueous sodium dihydrogenphosphate solution (100 ml) containing pranoprofen, ibuprofen, diclofenac, bromfenac, 2-naphthoic acid, 2-naphthylacetic acid or 2-naphthoxyacetic acid was added lomefloxacin in excess, and the pH thereof was adjusted to 8-9 with hydrochloric acid or sodium hydroxide. The mixture was shaken for one week at 25° C. and filtered through a 0.45 μm membrane filter, which was followed by the determination of a lomefloxacin content by high performance liquid chromatography.

Series [4] can be described thus: physchem.
The nature of series [5]: Effect of arylcarboxylic acid on solubility of pyridonecarboxylic acid - 3 (Table 3). Type of series: physicochemical. As to conditions: 0.1% aqueous sodium dihydrogenphosphate, 25° C., one week. How it is done: Experimental Example 3: Effect of arylcarboxylic acid on solubility of pyridonecarboxylic acid - 3
as §3

[6] abbreviates: pH 8, 2-naphthoic acid added, pH 8, 0.1% aqueous sodium dihydrogenphosphate.
The mark [7] stands for this setting: pH 8, 2-naphthoxyacetic acid added, pH 8, 0.1% aqueous sodium dihydrogenphosphate.
The mark [8] stands for this setting: pH 8, 2-naphthylacetic acid added, pH 8, 0.1% aqueous sodium dihydrogenphosphate.
The mark [9] stands for this setting: pH 8, without addition, pH 8, 0.1% aqueous sodium dihydrogenphosphate.
[10] abbreviates: pH 9, 2-naphthoic acid added, pH 9, 0.1% aqueous sodium dihydrogenphosphate.
The mark [11] stands for this setting: pH 9, 2-naphthoxyacetic acid added, pH 9, 0.1% aqueous sodium dihydrogenphosphate.
Setting [12] is: pH 9, 2-naphthylacetic acid added, pH 9, 0.1% aqueous sodium dihydrogenphosphate.
The mark [13] stands for this setting: pH 9, without addition, pH 9, 0.1% aqueous sodium dihydrogenphosphate.
Setting [14] is: pH 7, bromfenac added, pH 7, 0.1% aqueous sodium dihydrogenphosphate.
Where [15] appears, read: pH 7, ibuprofen added, pH 7, 0.1% aqueous sodium dihydrogenphosphate.
The mark [16] stands for this setting: pH 7, pranoprofen added, pH 7, 0.1% aqueous sodium dihydrogenphosphate.
The mark [17] stands for this setting: pH 7, without addition, pH 7, 0.1% aqueous sodium dihydrogenphosphate.
[18] abbreviates: pH 8, bromfenac added, pH 8, 0.1% aqueous sodium dihydrogenphosphate.
[19] abbreviates: pH 8, ibuprofen added, pH 8, 0.1% aqueous sodium dihydrogenphosphate.
Setting [20] is: pH 8, pranoprofen added, pH 8, 0.1% aqueous sodium dihydrogenphosphate.

≈ marks a conversion by molar mass, not a printed value.

The results in this text go back to patent publication US5942508A, “Method for solubilizing pyridonecarboxylic acid solubilizer thereof and aqueous solution containing solubilized pyridonecarboxylic acid” (Senju Pharmaceutical Co., Ltd., priority 1997, dated 1999).

Turning to `CCn1cc(C(=O)O)c(=O)c2cc(F)c(N3CCNCC3)nc21` [enoxacin, 1-ethyl-6-fluoro-1,4-dihydro-4-oxo-7-(1-piperazinyl)-1,8-naphthyridine-3-carboxylic acid], the thermodynamic solubility at 168 h amounted to 540 µg/mL (≈ 1690 µM) in series [1] (setting [6]); 470 µg/mL (≈ 1470 µM) in series [1] (setting [7]); 420 µg/mL (≈ 1310 µM) in series [1] (setting [8]); 250 µg/mL (≈ 780 µM) in series [1] (setting [9]); 1190 µg/mL (≈ 3710 µM) in series [1] (setting [10]); 990 µg/mL (≈ 3090 µM) in series [1] (setting [11]). Also, the thermodynamic solubility at 168 h in series [1] (setting [12]) stood at 830 µg/mL (≈ 2590 µM); in series [1] (setting [13]), 710 µg/mL (≈ 2220 µM); in series [2] (setting [14]), 320 µg/mL (≈ 999 µM); in series [2] (setting [15]) it was 300 µg/mL (≈ 937 µM); in series [2] (setting [16]), 780 µg/mL (≈ 2440 µM); in series [2] (setting [17]), 260 µg/mL (≈ 812 µM). In addition, the solubility (thermodynamic) at 168 h in series [2] (setting [18]) amounted to 350 µg/mL (≈ 1090 µM); in series [2] (setting [19]) it was 280 µg/mL (≈ 874 µM); in series [2] (setting [20]), 630 µg/mL (≈ 1970 µM); in series [2] (setting [9]), 250 µg/mL (≈ 780 µM). The “increase of solubility by addition of arylcarboxylic acid” value (“increase of solubility” below) in series [3] is given as 1.5-3 times. Also, the solubility was 280 µg/mL (≈ 874 µM) in series [4] (0.1% phosphate buffer, pH 7) and 1700 µg/mL (≈ 5310 µM) in series [4] (1.6% borate buffer, pH 6).
As for `CCn1cc(C(=O)O)c(=O)c2cc(F)c(N3CCNC(C)C3)c(F)c21` (stereo not shown) [lomefloxacin, 1-ethyl-6,8-difluoro-1,4-dihydro-7-(3-methyl-1-piperazinyl)-4-oxo-3-quinolinecarboxylic acid], the thermodynamic solubility at 168 h was found to be 2300 µg/mL (≈ 6550 µM) in series [5] (setting [6]); 2040 µg/mL (≈ 5810 µM) in series [5] (setting [7]); 1800 µg/mL (≈ 5120 µM) in series [5] (setting [8]); 1390 µg/mL (≈ 3960 µM) in series [5] (pH 8, diclofenac added, pH 8, 0.1% aqueous sodium dihydrogenphosphate); 2140 µg/mL (≈ 6090 µM) in series [5] (setting [20]); 1180 µg/mL (≈ 3360 µM) in series [5] (setting [9]). The solubility (thermodynamic) at 168 h is 4700 µg/mL (≈ 13400 µM) in series [5] (pH 9, bromfenac added, pH 9, 0.1% aqueous sodium dihydrogenphosphate); 3330 µg/mL (≈ 9480 µM) in series [5] (pH 9, diclofenac added, pH 9, 0.1% aqueous sodium dihydrogenphosphate); 3500 µg/mL (≈ 9960 µM) in series [5] (pH 9, ibuprofen added, pH 9, 0.1% aqueous sodium dihydrogenphosphate); 3000 µg/mL (≈ 8540 µM) in series [5] (setting [13]). Besides, the “increase of solubility” value in series [3] was 1.5-3 times.
In the case of `CCn1cc(C(=O)O)c(=O)c2cc(F)c(N3CCNCC3)cc21` [norfloxacin, 1-ethyl-6-fluoro-1,4-dihydro-4-oxo-7-(1-piperazinyl)-3-quinolinecarboxylic acid], the thermodynamic solubility at 168 h in series [1] (setting [6]) was determined as 920 µg/mL (≈ 2880 µM); in series [1] (setting [7]) it was 750 µg/mL (≈ 2350 µM); in series [1] (setting [8]), 580 µg/mL (≈ 1820 µM); in series [1] (setting [9]) it was 360 µg/mL (≈ 1130 µM); in series [1] (setting [10]), 1590 µg/mL (≈ 4980 µM); in series [1] (setting [11]), 1600 µg/mL (≈ 5010 µM). In addition, the thermodynamic solubility at 168 h turned out to be 2060 µg/mL (≈ 6450 µM) in series [1] (setting [12]); 1060 µg/mL (≈ 3320 µM) in series [1] (setting [13]); 410 µg/mL (≈ 1280 µM) in series [2] (setting [14]); 430 µg/mL (≈ 1350 µM) in series [2] (setting [15]); 1810 µg/mL (≈ 5670 µM) in series [2] (setting [16]); 400 µg/mL (≈ 1250 µM) in series [2] (setting [17]). Further, the thermodynamic solubility at 168 h in series [2] (setting [18]) stood at 540 µg/mL (≈ 1690 µM); in series [2] (setting [19]), 420 µg/mL (≈ 1320 µM); in series [2] (setting [20]) it was 810 µg/mL (≈ 2540 µM); in series [2] (setting [9]), 360 µg/mL (≈ 1130 µM). Also, in series [3], the “increase of solubility” value was 1.5-3 times. Moreover, the solubility in series [4] (0.1% phosphate buffer, pH 8) amounted to 360 µg/mL (≈ 1130 µM); in series [4] (1.6% borate buffer, pH 7), 390 µg/mL (≈ 1220 µM).
